# Test results published in publication PMC12169614, “Exploring Long Arm Amide-Linked Side Chains in the Design of Antifungal Azole Inhibitors of Sterol 14α-Demethylase (CYP51)” (Journal of Medicinal Chemistry, 2025).
# Experiments:
# Y71 SC5314 = experiment: MIC80 determination, C. albicans clinical isolate Y71 SC5314; type: cell-based; details: Candida albicans; C. albicans clinical isolate Y71 SC5314; pH 7, 24 h
# Protocol: (§1) Cells were seeded at an OD600 nm of 0.005 (1.5 × 10^4 CFU), and the plates were incubated at 30 °C with shaking at 200 rpm for 48 h for S. cerevisiae strains and 24 h for C. albicans . Cell growth was assessed by measuring the OD600 nm using a Synergy 2 multimode plate reader (BioTek Instruments, VT, USA). Each MIC80 was determined using triplicate measurements for pools of 4 clones of each strain in three separate experiments.
# Y611 FHB3 = experiment: MIC80 determination, C. albicans clinical isolate Y611 FHB3; type: cell-based; details: Candida albicans, 24 h, pH 7
# Protocol: as §1
# C. albicans = system: C. albicans; design: method as in number not given; details: ref number not given; cited from earlier work
# MCF-10A cells = experiment: Viability (CellTiter Blue) assay; type: cell-based, human; details: 48 h, 10 μM to 1 pM
# Protocol: Human epithelial breast cells, MCF-10A, were routinely cultured in DMEM/F-12 (Fisher Scientific, Loughborough, UK) containing 5% heat-inactivated horse serum (ThermoFisher Scientific, UK), 20 ng/mL hEGF (Merck Life Science, Dorset, UK), 500 ng/mL hydrocortisone (Merck Life Science, Dorset, UK) and 10 μg/mL insulin (Merck Life Science, Dorset, UK) under tissue culture conditions (37 °C, 5% CO2 in a humidified incubator). Cells were passaged upon reaching confluency using 0.25% Trypsin/EDTA (Fisher Scientific, Loughborough, UK) for a maximum of 15 passages from defrosting. […].
# Cells were seeded in 100 μL of complete medium per well in a black, flat-bottomed, 96-well tissue-culture-treated plate (Fisher Scientific, Loughborough, UK) at a density of 4000 cells/well and incubated under tissue culture conditions for 24 h. Cells were then treated by mixing in an additional 100 μL of drug/diluent control in complete medium to give final concentrations of 10 μM–1 pM. DMSO was used as a vehicle control, and as a positive toxic control, staurosporine was added at a final concentration of 10 μM. Cells were then incubated for 48 h under tissue culture conditions before the treatments were replaced with fresh media before performing the CellTiter Blue assay (Promega, Southampton, UK) was performed following the manufacturer's instructions. […]
# Y2721 OE CpCYP51 = experiment: MIC80 determination, strain Y2721; type: cell-based, S. cerevisiae; details: Saccharomyces cerevisiae
# Protocol: as §1
# 2711 CnCYP51 OE CnCPR = experiment: MIC80 determination, strain 2711; type: cell-based, S. cerevisiae; details: Saccharomyces cerevisiae
# Protocol: as §1
# Y2769 OE CauCYP51 K143R = experiment: MIC80 determination, strain Y2769; type: cell-based, S. cerevisiae; details: Saccharomyces cerevisiae
# Protocol: as §1
# [1] = system: Y2746 OE AfCYP51A AfCPR AfERG6; experiment: MIC80 determination, strain Y2746; type: cell-based, S. cerevisiae; details: Saccharomyces cerevisiae
# Protocol: as §1
# [2] = system: Y2747 OE AfCYP51B AfCPR AfERG6; experiment: MIC80 determination, strain Y2747; type: cell-based, S. cerevisiae; details: Saccharomyces cerevisiae
# Protocol: as §1
# Y2651 OE CYP51 F5 RaCPR = experiment: MIC80 determination, strain Y2651; type: cell-based, S. cerevisiae; details: Saccharomyces cerevisiae
# Protocol: as §1
# Y2765 OE CauMDR1 = experiment: MIC80 determination, strain Y2765; type: cell-based, S. cerevisiae; details: Saccharomyces cerevisiae
# Protocol: as §1
# Y2300 OE ScCYP51 = experiment: MIC80 determination, strain Y2300; type: cell-based, S. cerevisiae; details: Saccharomyces cerevisiae, 48 h, pH 6.8
# Protocol: as §1
# Y2374 OE CgCYP51 = experiment: MIC80 determination, strain Y2374; type: cell-based, S. cerevisiae; details: Saccharomyces cerevisiae
# Protocol: as §1
# Y2459 OE CaCYP51 CaCpr = experiment: MIC80 determination, strain Y2459; type: cell-based, S. cerevisiae; details: Saccharomyces cerevisiae, 48 h, pH 6.8
# Protocol: as §1
# Y2301 OE ScCYP51 Y140F = experiment: MIC80 determination, strain Y2301; type: cell-based, S. cerevisiae; details: Saccharomyces cerevisiae, 48 h, pH 6.8
# Protocol: as §1
# Y2649 OE CYP51 F1 RaCPR = experiment: MIC80 determination, strain Y2649; type: cell-based, S. cerevisiae; details: Saccharomyces cerevisiae
# Protocol: as §1
# Y610 FHB1 = experiment: MIC80 determination, C. albicans clinical isolate Y610 FHB1; type: cell-based; details: Candida albicans; C. albicans clinical isolate Y610 FHB1 (weakly expresses CaCDR1); pH 7, 24 h
# Protocol: as §1
# Y433 OE CgCDR1 = experiment: MIC80 determination, strain Y433; type: cell-based, S. cerevisiae; details: Saccharomyces cerevisiae
# Protocol: as §1
# Y2411 Endog. ScCYP51 = experiment: MIC80 determination, strain Y2411; type: cell-based, S. cerevisiae; details: Saccharomyces cerevisiae; strain Y2411 Endog. ScCYP51; SD pH 6.8, 30 °C, 48 h
# Protocol: as §1
# Y570 OE CaCDR1B = experiment: MIC80 determination, strain Y570; type: cell-based, S. cerevisiae; details: Saccharomyces cerevisiae, 48 h, pH 6.8
# Protocol: as §1
# Y525 OE CaMDR1a = experiment: MIC80 determination, strain Y525; type: cell-based, S. cerevisiae; details: Saccharomyces cerevisiae, 48 h, pH 6.8
# Protocol: as §1
# Y2768 OE CauCYP51 Y132F = experiment: MIC80 determination, strain Y2768; type: cell-based, S. cerevisiae; details: Saccharomyces cerevisiae
# Protocol: as §1
# Y2513 OE ScCYP51 Y140H = experiment: MIC80 determination, strain Y2513; type: cell-based, S. cerevisiae; details: Saccharomyces cerevisiae, 48 h, pH 6.8
# Protocol: as §1
# Y1 = experiment: MIC80 determination, C. albicans clinical isolate Y1; type: cell-based; details: Candida albicans, pH 7, 24 h
# Protocol: as §1
# Y2767 OE CauCYP51 = experiment: MIC80 determination, strain Y2767; type: cell-based, S. cerevisiae; details: Saccharomyces cerevisiae
# Protocol: as §1
# CaCYP51 Y132F = CaCYP51 Y132F (Candida albicans, UniProt P10613, Y132F); details: footnote b; ref number not given; cited from earlier work
# Chain of CaCYP51 Y132F (P10613 whole entry Y132F): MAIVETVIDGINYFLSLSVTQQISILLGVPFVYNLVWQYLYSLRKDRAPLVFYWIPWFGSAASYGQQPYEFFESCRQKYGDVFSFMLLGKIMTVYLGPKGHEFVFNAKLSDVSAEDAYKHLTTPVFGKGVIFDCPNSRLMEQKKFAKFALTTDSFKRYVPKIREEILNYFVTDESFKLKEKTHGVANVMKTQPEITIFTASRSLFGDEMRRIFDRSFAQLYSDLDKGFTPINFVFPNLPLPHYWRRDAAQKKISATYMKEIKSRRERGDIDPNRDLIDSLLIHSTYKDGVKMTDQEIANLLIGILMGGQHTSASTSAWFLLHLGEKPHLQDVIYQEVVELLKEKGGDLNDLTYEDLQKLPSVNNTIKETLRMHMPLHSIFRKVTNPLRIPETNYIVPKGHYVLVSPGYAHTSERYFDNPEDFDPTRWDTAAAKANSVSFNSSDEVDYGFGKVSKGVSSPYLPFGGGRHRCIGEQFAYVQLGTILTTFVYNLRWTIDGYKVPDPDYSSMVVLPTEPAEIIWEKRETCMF
# CaCYP51 Y132H + K143R = CaCYP51 Y132H + K143R (Candida albicans, UniProt P10613, K143R/Y132H); details: footnote b; ref number not given; cited from earlier work
# Chain of CaCYP51 Y132H + K143R (P10613 whole entry Y132H/K143R): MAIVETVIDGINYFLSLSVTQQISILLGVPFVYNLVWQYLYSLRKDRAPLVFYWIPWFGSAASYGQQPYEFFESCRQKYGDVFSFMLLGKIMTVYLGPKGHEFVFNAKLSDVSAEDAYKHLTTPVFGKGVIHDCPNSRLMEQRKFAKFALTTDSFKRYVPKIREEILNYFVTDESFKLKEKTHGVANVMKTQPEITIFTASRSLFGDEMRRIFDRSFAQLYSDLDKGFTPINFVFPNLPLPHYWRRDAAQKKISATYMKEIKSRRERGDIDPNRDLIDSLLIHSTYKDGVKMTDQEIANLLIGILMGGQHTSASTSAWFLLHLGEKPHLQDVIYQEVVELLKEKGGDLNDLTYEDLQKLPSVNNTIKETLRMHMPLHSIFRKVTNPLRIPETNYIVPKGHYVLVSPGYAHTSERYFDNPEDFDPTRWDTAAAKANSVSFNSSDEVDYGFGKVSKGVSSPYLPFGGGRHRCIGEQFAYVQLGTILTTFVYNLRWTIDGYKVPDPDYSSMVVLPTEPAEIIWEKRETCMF
# Y2766 OE CauCDR1 = experiment: MIC80 determination, strain Y2766; type: cell-based, S. cerevisiae; details: Saccharomyces cerevisiae
# Protocol: as §1
# Y2716 OE CpCYP51 Y132F = experiment: MIC80 determination, strain Y2716; type: cell-based, S. cerevisiae; details: Saccharomyces cerevisiae
# Protocol: as §1
smiles,measurement,setting,value
"CC[C@@H]([C@H](C)O)n1ncn(-c2ccc(N3CCN(c4ccc(OC[C@@H]5CO[C@@](Cn6cncn6)(c6ccc(F)cc6F)C5)cc4)CC3)cc2)c1=O [PCZ, posaconazole, reference compound]",MIC80,Y71 SC5314,0.073 µM
same,MIC80,Y611 FHB3,0.53 µM
same,MIC,C. albicans,≤ 0.03 µg/mL
same,cell viability (tolerance in words),MCF-10A cells,no difference observed
same,MIC80,Y2721 OE CpCYP51,0.122 ± 0.037 µM
same,MIC80,2711 CnCYP51 OE CnCPR,0.035 ± 0.015 µM
same,MIC80,Y2769 OE CauCYP51 K143R,0.117 ± 0.005 µM
same,MIC80,[1],0.033 ± 0.014 µM
same,MIC80,[2],0.07 ± 0.024 µM
same,MIC80,Y2651 OE CYP51 F5 RaCPR,0.054 ± 0.011 µM
same,MIC80,Y2765 OE CauMDR1,0.096 ± 0.003 µM
same,MIC80,Y2300 OE ScCYP51,2 ± 0.05 µM
same,MIC80,Y2374 OE CgCYP51,0.332 µM
same,MIC80,Y2459 OE CaCYP51 CaCpr,0.22 ± 0.07 µM
same,MIC80,Y2301 OE ScCYP51 Y140F,0.191 ± 0.041 µM
same,MIC80,Y2649 OE CYP51 F1 RaCPR,0.1 µM
same,MIC80,Y610 FHB1,0.151 ± 0.016 µM
same,MIC80,Y433 OE CgCDR1,23.8 µM
same,MIC80,Y2411 Endog. ScCYP51,0.097 ± 0.04 µM
same,MIC80,Y570 OE CaCDR1B,> 25 µM
same,MIC80,Y525 OE CaMDR1a,0.218 µM
same,MIC80,Y2768 OE CauCYP51 Y132F,0.168 ± 0.006 µM
same,MIC80,Y2513 OE ScCYP51 Y140H,0.147 ± 0.057 µM
same,MIC80,Y1,0.07 µM
same,MIC80,Y2767 OE CauCYP51,0.196 ± 0.022 µM
same,IC50,CaCYP51 Y132F,343 ± 20 nM
same,IC50,CaCYP51 Y132H + K143R,196 ± 7 nM
same,MIC80,Y2766 OE CauCDR1,0.971 ± 0.049 µM
same,MIC80,Y2716 OE CpCYP51 Y132F,0.135 ± 0.058 µM
